Patent US20240180891A1, “SYNERGISTIC MODULATORS OF ALPHA-DICARBONYL DETOXIFICATION AND THEIR USE FOR INDUCING WEIGHT LOSS AND THE TREATMENT OF DIABETIC PATHOLOGIES” (Buck Institute for Research on Aging, priority 2020, published 2024)

Assays:
C57BL/6 mice = system: C57BL/6 mice
Method: Percent weight increases indicate the percent change from starting body weights to the weights at the end of the two-week diet. Daily food consumption was measured twice weekly.
Next, we tested if MG-H1, which is detectable in human CSF and serum (Monnier et al. (2005) Ann. N. Y. Acad. Sci. 1043: 567-581), influences feeding in mice. We gave 12 week-old WT mice 100 μM or 200 μM MG-H1 via supplementation of drinking water for two weeks.

C. elegans = conditions: feeding of AGE, data not shown
Source text: MGO-derived AGEs have been found in proteins with aging and in age-related diseases (see, e.g., Li et al. (2012) J. Neurol. Sci. 317: 1-5; Cone (2005) Nat. Neurosci. 8: 571-578; Mitchell et al. (2017) Oncotarget, 8: 17453-17474; Li et al. (2012) Neurobiol. Aging 33: 1400-1410). […] To investigate the impact of specific AGEs, we provided synthesized individual AGEs and examined their biological effects. We adapted published procedures to synthesize four AGEs on a gram scale: carboxymethyl-lysine (CML), carboxyethyl-lysine (CEL), fructose-lysine (F-Ly), and methylglyoxal-derived hydroimidazolone MG-H1. CEL and MG-H1 are MGO derived AGEs while CML is glyoxal derived, and F-LY is glucose derived.

[1] = recent human trial (Bierhaus et al.); cited from earlier work
[2] = target: T1, transient receptor potential cation channel (TRPA1) (Caenorhabditis elegans, UniProt Q18297); test: ALA mechanism: TRPA1 activation and glyoxalase expression; design: species or system C. elegans
T1 sequence (Q18297 1-1211): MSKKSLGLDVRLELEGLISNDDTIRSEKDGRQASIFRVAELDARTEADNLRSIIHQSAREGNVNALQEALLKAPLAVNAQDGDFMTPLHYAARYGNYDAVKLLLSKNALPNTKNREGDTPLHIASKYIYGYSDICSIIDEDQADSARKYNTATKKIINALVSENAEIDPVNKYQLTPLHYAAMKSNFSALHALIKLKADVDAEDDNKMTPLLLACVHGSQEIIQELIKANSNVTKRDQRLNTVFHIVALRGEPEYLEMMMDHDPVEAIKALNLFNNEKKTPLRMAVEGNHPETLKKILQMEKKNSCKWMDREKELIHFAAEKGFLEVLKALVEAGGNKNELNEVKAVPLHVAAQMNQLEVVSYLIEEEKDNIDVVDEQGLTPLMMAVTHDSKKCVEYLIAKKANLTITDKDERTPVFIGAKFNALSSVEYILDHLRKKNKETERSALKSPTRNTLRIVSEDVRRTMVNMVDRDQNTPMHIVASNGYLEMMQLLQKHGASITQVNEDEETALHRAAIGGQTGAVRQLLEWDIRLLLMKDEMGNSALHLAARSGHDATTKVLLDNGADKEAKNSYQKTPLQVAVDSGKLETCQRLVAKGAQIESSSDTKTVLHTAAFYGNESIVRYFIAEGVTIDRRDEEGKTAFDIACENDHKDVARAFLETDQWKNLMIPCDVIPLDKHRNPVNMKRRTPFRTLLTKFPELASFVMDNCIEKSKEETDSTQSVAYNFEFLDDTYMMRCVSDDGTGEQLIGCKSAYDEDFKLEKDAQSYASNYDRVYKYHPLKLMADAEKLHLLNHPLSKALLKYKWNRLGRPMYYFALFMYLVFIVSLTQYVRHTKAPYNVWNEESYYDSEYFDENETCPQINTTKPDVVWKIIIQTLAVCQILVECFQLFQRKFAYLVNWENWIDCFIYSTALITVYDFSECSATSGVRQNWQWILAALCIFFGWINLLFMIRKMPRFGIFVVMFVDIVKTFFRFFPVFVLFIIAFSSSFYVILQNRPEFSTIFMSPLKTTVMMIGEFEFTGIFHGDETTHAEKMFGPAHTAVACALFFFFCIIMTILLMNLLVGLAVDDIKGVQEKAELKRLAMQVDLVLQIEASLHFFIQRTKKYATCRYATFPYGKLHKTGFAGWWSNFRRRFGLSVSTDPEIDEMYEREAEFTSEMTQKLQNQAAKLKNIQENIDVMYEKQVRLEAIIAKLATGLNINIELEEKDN
Source text: FIG. 4 illustrates a proposed model for how MGO is sensed by TRPA1 to activate SKN-1/Nrf2 and mediate detoxification of MGO through downstream glyoxalases in worms and mammals. MGO is sensed by TRPA-1 leading to the activation of SKN-1/Nrf2 pathway. This in turn activates downstream glyoxalases GLO1 and DJ1 (Id.).
(§1) We used C. elegans to screen for compounds that mitigate the detrimental phenotypes in the worm glod-4 mutant. […] This included alpha-lipoic acid (ALA), a drug already prescribed for diabetic neuropathy in certain countries (see, e.g., Giacco et al. (2014) Diabetes 63: 291-299).

C. elegans glod-4 mutant = C. elegans glod-4 mutant screen of natural product library for compounds mitigating MGO toxicity; format: in vivo; conditions: C. elegans and mammalian neuronal cells; Tim Tec NPL-640 library
Source text: as §1

[3] = single compounds; cited from earlier work
[4] = higher dose (200 μM) in drinking water, two weeks

Row | SMILES | hourly food intake (C57BL/6 mice; data not shown) | water intake (C57BL/6 mice; data not shown) | energy expenditure (C57BL/6 mice; higher dose) | oxygen consumption (C57BL/6 mice; higher dose) | body weights (C57BL/6 mice; [4]) | food intake (C57BL/6 mice; [4]) | food intake (C. elegans) | triglyceride content (C. elegans) | weight [1] | TRPA1 activation [2] | expression of glyoxalases (DJ1 and GLO1) [2] | amelioration of deleterious effects of MGO toxicity (C. elegans glod-4 mutant) | protection against obesity [3]
1 | CC1NC(NCCC[C@H](N)C(=O)O)=NC1=O (some centres unmarked) [MG-H1, hydroimidazolone Nδ-(5-hydro-5-methyl-4-imidazolon-2-yl) ornithine] | increase in hourly food intake | relatively similar water intake | reactive increase | reactive increase | significant increase | significant increase | enhances food intake | increases triglyceride content |  |  |  |  | 
2 | O=C(O)CCCCC1CCSS1 (stereo not drawn) [alpha-lipoic acid, 1,2-dithiolane-3-pentanoic acid] |  |  |  |  |  |  |  |  | effectiveness in reducing weight | activates | enhancing the expression | ameliorate the deleterious effects of MGO toxicity | protect against obesity
3 | NC(=O)c1cccnc1 [nicotinamide] |  |  |  |  |  |  |  |  |  |  |  |  | protect against obesity
